Data: PubChem BioAssay AID328 (DTP/NCI, 2004)
Where “and” joins values, the source holds several entries; their conditions need not be identical. Equal entries are not always repeated. Inconclusive results and toxic doses are left out. Rule for the calls: active = survival T/C of 150% or more; inactive = T/C below 125% in these data.

Test system: BDF1 mice, P388 leukemia ip, median survival T/C
Experiment: NCI In Vivo Anticancer Drug Screen. Data for tumor model P388 Leukemia (intraperitoneal) in B6D2F1 (BDF1) mice
Conditions: endpoint: median survival time, higher = longer survival
Summary of the method: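 Transplantable tumour in mice; compound vs vehicle dosing; survival scored; ratio of treated to control reported.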

[1] = dose: 25.0 mg/kg/injection, schedule: Q01DX009 (ip), vehicle: saline with Tween-80
[2] = dose: 50.0 mg/kg/injection, schedule: Q01DX009 (ip), vehicle: saline with Tween-80
[3] = dose: 100.0 mg/kg/injection, schedule: Q01DX009 (ip), vehicle: saline with Tween-80
[4] = dose: 200.0 mg/kg/injection, schedule: Q01DX009 (ip), vehicle: saline with Tween-80
[5] = dose: 400.0 mg/kg/injection, schedule: Q01DX009 (ip), vehicle: saline with Tween-80
[6] = dose: 12.5 mg/kg/injection, schedule: Q01DX009 (ip), vehicle: saline with Tween-80
[7] = dose: 100.0 mg/kg/injection, schedule: Q01DX009 (ip), vehicle: Klucel (hydroxypropylcellulose) (HPC)
[8] = dose: 200.0 mg/kg/injection, schedule: Q01DX009 (ip), vehicle: Klucel (hydroxypropylcellulose) (HPC)
[9] = dose: 12.5 mg/kg/injection, schedule: Q01DX009 (ip), vehicle: saline
[10] = dose: 50.0 mg/kg/injection, schedule: Q01DX009 (ip), vehicle: saline
[11] = dose: 50.0 mg/kg/injection, schedule: Q04DX003 (ip), vehicle: saline
[12] = dose: 100.0 mg/kg/injection, schedule: Q04DX003 (ip), vehicle: saline
[13] = dose: 25.0 mg/kg/injection, schedule: Q01DX009 (ip), vehicle: saline
[14] = dose: 100.0 mg/kg/injection, schedule: Q01DX009 (ip), vehicle: saline
[15] = dose: 100.0 mg/kg/injection, schedule: Q04DX003 (ip), vehicle: saline with Tween-80
[16] = dose: 200.0 mg/kg/injection, schedule: Q04DX003 (ip), vehicle: saline with Tween-80
[17] = dose: 400.0 mg/kg/injection, schedule: Q04DX003 (ip), vehicle: saline with Tween-80

Measured: T/C

COc1cc2c(cc1OC)C(c1ccc(N=Cc3ccc(N(C)C)cc3)cc1)N(C(=S)Nc1cc(Cl)ccc1Cl)CC2 (stereo unspecified)
inactive: [1] 97 % of control | [2] 93 % of control and 97 % of control | [3] 95 % of control | [4] 89 % of control

Oc1ccc(C(O)(c2ccccc2)c2ccc(O)c3ccccc23)c2ccccc12
inactive: [3] 95 % of control | [4] 103 % of control | [5] 110 % of control

O=C(NS(=O)(=O)c1ccc(Cl)cc1)c1ccccc1
inactive: [6] 99 % of control | [1] 100 % of control and 109 % of control | [2] 103 % of control and 120 % of control | [3] 100 % of control | [4] 90 % of control

Nc1nc(N)c2cc(S(=O)c3ccc4ccccc4c3)ccc2n1 (stereo unspecified)
inactive: [2] 95 % of control | [3] 95 % of control | [4] 104 % of control

Cn1c(=O)oc2ccc(Cl)cc21
inactive: [1] 122 % of control | [2] 115 % of control | [4] 91 % of control

N#CCc1nc2ccccc2[nH]1
inactive: dose: 50.0 mg/kg/injection, schedule: Q01DX009 (ip), vehicle: Klucel (hydroxypropylcellulose) (HPC) 104 % of control | [7] 109 % of control | [8] 95 % of control

COC(=O)C1C2CC[N+]3(CCCCC13)O2 (stereo unspecified)
inactive: dose: 3.13 mg/kg/injection, schedule: Q01DX009 (ip), vehicle: saline 100 % of control | dose: 6.25 mg/kg/injection, schedule: Q01DX009 (ip), vehicle: saline 100 % of control | [9] 93 % of control and 109 % of control | [10] 105 % of control

CCCCCCCCCCCC(=O)Oc1c(Cl)c(Cl)c(C#N)c(Cl)c1Cl
inactive: [2] 94 % of control | [4] 86 % of control

C[S+](C)N(c1ccccc1)C(C)(C)C
inactive: dose: 12.5 mg/kg/injection, schedule: Q04DX003 (ip), vehicle: saline with Tween-80 99 % of control | dose: 25.0 mg/kg/injection, schedule: Q04DX003 (ip), vehicle: saline with Tween-80 104 % of control | dose: 50.0 mg/kg/injection, schedule: Q04DX003 (ip), vehicle: saline with Tween-80 89 % of control

NNC(=O)c1ccc(Cl)cc1Nc1ccc(F)cc1
inactive: [11] 104 % of control | [12] 100 % of control

CN(C)c1ccc(/C=C/c2ccnc3ccc(I)cc23)cc1
inactive: dose: 6.25 mg/kg/injection, schedule: Q01DX009 (ip), vehicle: saline with Tween-80 96 % of control | [6] 119 % of control | [2] 116 % of control

Cc1cc(N(C)C)ccc1/C=C/c1ccnc2ccccc12
inactive: dose: 100.0 mg/kg/injection, schedule: Q04DX002 (ip), vehicle: saline with Tween-80 117 % of control | dose: 200.0 mg/kg/injection, schedule: Q04DX002 (ip), vehicle: saline with Tween-80 107 % of control

CCOC(=O)c1ccccn1
inactive: [9] 108 % of control | [1] 112 % of control | [13] 105 % of control | [2] 121 % of control | [10] 94 % of control | [3] 105 % of control | [14] 103 % of control | [4] 110 % of control

O=S(=O)(O)c1ccc(CCCCCCl)cc1
inactive: [13] 109 % of control | [10] 100 % of control | dose: 100.0 mg/kg/injection, schedule: Q01DX001 (ip), vehicle: saline 110 % of control | [14] 104 % of control and 110 % of control | dose: 200.0 mg/kg/injection, schedule: Q01DX001 (ip), vehicle: saline 90 % of control | dose: 200.0 mg/kg/injection, schedule: Q01DX009 (ip), vehicle: saline 100 % of control | dose: 400.0 mg/kg/injection, schedule: Q01DX001 (ip), vehicle: saline 90 % of control | dose: 400.0 mg/kg/injection, schedule: Q01DX009 (ip), vehicle: saline 110 % of control

NC(=O)N/N=C/c1cccs1
inactive: [1] 97 % of control | [2] 104 % of control

C=CC(=O)NC1CCCCC1
inactive: dose: 50.0 mg/kg/injection, schedule: Q04DX003 (ip), vehicle: Klucel (hydroxypropylcellulose) (HPC) 90 % of control | dose: 75.0 mg/kg/injection, schedule: Q04DX003 (ip), vehicle: Klucel (hydroxypropylcellulose) (HPC) 104 % of control | dose: 150.0 mg/kg/injection, schedule: Q04DX003 (ip), vehicle: Klucel (hydroxypropylcellulose) (HPC) 104 % of control

Clc1ccc(-c2ncnc3c2Cc2ccccc2-3)cc1
inactive: [3] 112 % of control | [4] 116 % of control | [5] 100 % of control

FC(F)(F)c1nc2nc(Cl)c(Cl)nc2n1CCCN1CCOCC1
inactive: [15] 105 % of control | [16] 115 % of control | [17] 110 % of control

O=C1c2ccccc2C(=O)N1CNc1ccc(Cc2ccc(NCN3C(=O)c4ccccc4C3=O)c(Cl)c2)cc1Cl
inactive: [7] 100 % of control | dose: 100.0 mg/kg/injection, schedule: Q04DX003 (ip), vehicle: Klucel (hydroxypropylcellulose) (HPC) 100 % of control | [8] 100 % of control | dose: 200.0 mg/kg/injection, schedule: Q04DX003 (ip), vehicle: Klucel (hydroxypropylcellulose) (HPC) 95 % of control | dose: 400.0 mg/kg/injection, schedule: Q01DX009 (ip), vehicle: Klucel (hydroxypropylcellulose) (HPC) 90 % of control | dose: 400.0 mg/kg/injection, schedule: Q04DX003 (ip), vehicle: Klucel (hydroxypropylcellulose) (HPC) 95 % of control

CN=C1N[N+]2=C(C)CCCC2S1 (stereo unspecified)
inactive: [13] 97 % of control | [10] 91 % of control | [14] 99 % of control

Clc1cc(CBr)c(CBr)cc1Cl
inactive: [6] 100 % of control

Cc1ccc(NC(=O)c2ccccc2Cl)cc1C
inactive: [15] 104 % of control | [16] 113 % of control | [17] 109 % of control

Cn1c(CC(O)(C(F)(F)Cl)C(F)(F)Cl)cc(=O)n1-c1ccccc1
inactive: [15] 100 % of control | [16] 100 % of control

O=C(CCNC(=O)OCc1ccccc1)NC(CSCc1ccccc1)C(=O)O (stereo unspecified)
inactive: dose: 12.5 mg/kg/injection, schedule: Q04DX003 (ip), vehicle: water 112 % of control | dose: 25.0 mg/kg/injection, schedule: Q04DX003 (ip), vehicle: water 118 % of control | dose: 50.0 mg/kg/injection, schedule: Q04DX003 (ip), vehicle: water 114 % of control | dose: 100.0 mg/kg/injection, schedule: Q04DX003 (ip), vehicle: water 105 % of control | dose: 200.0 mg/kg/injection, schedule: Q04DX003 (ip), vehicle: water 103 % of control

O=C(O)CN(Cc1ccccc1)Sc1ccccc1[N+](=O)[O-]
inactive: dose: 25.0 mg/kg/injection, schedule: Q04DX003 (ip), vehicle: other 105 % of control | dose: 50.0 mg/kg/injection, schedule: Q04DX003 (ip), vehicle: other 117 % of control | dose: 200.0 mg/kg/injection, schedule: Q04DX003 (ip), vehicle: other 117 % of control

C[C@]12CC[C@H](OC3OC(CO)C(O)C(O)C3O)C[C@H]1CC[C@@H]1[C@@H]2CC[C@]2(C)[C@@H](C3=CCOC3=O)CC[C@]12O (stereo partly specified)
inactive: dose: 0.1 mg/kg/injection, schedule: Q01DX010 (ip), vehicle: saline 110 % of control | dose: 0.2 mg/kg/injection, schedule: Q01DX010 (ip), vehicle: saline 105 % of control | dose: 0.25 mg/kg/injection, schedule: Q01DX010 (ip), vehicle: saline 100 % of control | dose: 0.4 mg/kg/injection, schedule: Q01DX010 (ip), vehicle: saline 105 % of control | dose: 0.5 mg/kg/injection, schedule: Q01DX010 (ip), vehicle: saline 100 % of control | dose: 0.8 mg/kg/injection, schedule: Q01DX010 (ip), vehicle: saline 100 % of control | dose: 1.0 mg/kg/injection, schedule: Q01DX010 (ip), vehicle: saline 100 % of control

ClC1OCCOC1Cl (stereo unspecified)
inactive: [13] 96 % of control | [10] 100 % of control | [11] 105 % of control | [12] 110 % of control

COC(OC)c1[nH]c(=S)[nH]c(=O)c1Cc1ccc(C)c(C)c1
inactive: [3] 103 % of control | [4] 96 % of control | [5] 100 % of control
